How the values were obtained:
mice [1] = assay: Prevention of 3-mercaptopropionic acid (3-MPA)-induced convulsions in mice; type: in vivo, male Swiss albino mice; conditions: for Number of Mice Protected From Convulsions Induced by 3-MPA at 100 mg/kg, 30 min interval / Number of Mice Protected From Convulsions Induced by 3-MPA at 100 mg/kg, 2 hr interval: 100 mg/kg orally, 3-MPA 120 mg/kg subcutaneously, two groups of five animals; for Number of Mice Protected From Convulsions Induced by 3-MPA at 100 mg/kg, 30 min interval: 30 min before convulsions induced; for Number of Mice Protected From Convulsions Induced by 3-MPA at 100 mg/kg, 2 hr interval: 2 hr before convulsions induced
Experimental: (§1) Treatment of a mammal afflicted by or susceptible to certain CNS disorders is accomplished by administration of a therapeutically-effective amount of a compound of Formula I. In particular, Compounds #1-11 of Table II were evaluated by in vitro and in vivo animal model assays to determine the pharmacological properties of such compounds and their likely suitability for use as therapeutic drugs in humans. These biological assays, as described below, consisted of prevention of induced convulsions in mice, determination of acute toxicity in mice and animal behavior assays. Except as otherwise specified, the animals used in the in vivo tests were male Swiss albino mice weight 22 to 33 g [CDl, Charles River, France], housed in groups of 10 on a 12-hour dark-light cycle for at least one week before use and fasted overnight prior to testing.
(§2) Compounds of Formula I were evaluated as inhibitors of convulsions and death induced by different convulsant agents: 3-mercaptopropionic acid (3-MPA; 120 mg/kg subcutaneously), bicuculline (BIC, 0.6 mg/kg intravenously), pentylenetetrazole (PTZ, 55 mg/kg intravenously) and supramaximal electroconvulsive shocks (ECS evoked by a current intensity of 48 mA, 50 Hz. 0.2 sec duration, 10 msec square pulse, corneal electrodes) [W. van Dorsser, D. Barris, A. Cordi and J. Roba, Arch. Int. Pharmacodyn., 266, 239-249 (1983)]. The compounds of the invention were administered orally at a dosage of either 100 mg/kg or 30 mg/kg in a volume of 10 ml/kg each to 5 mice. Tonic convulsions and the number of dead mice were noted. Results are given in Table III as a score which represents the total number of mice protected from convulsions induced by 3-mercaptopropionic acid at dose of 100 mg/kg for two groups of five animals, or the percentage of mice protected from convulsions induced by bicuculline at a dose of 30 mg/kg for four groups of five animals.
(§3) Based upon data generated from the previously-described anti-convulsant experiments, ED50 values were calculated at which Compound #6 inhibits convulsions induced by the convulsant agents listed in Table IV.

mice [2] = system: mice; parameters: species or system male Swiss albino mice; conditions: mouse, in vivo, po
Experimental: as §1
Behavioral effects of compounds of the invention on animals were determined by observations taken at 5 to 6 hours and at 24 hours after administration of compounds in the acute toxicity studies. Determinations were made based on a method derived from that of S. Irwin [See R. A. Turner, Screening Methods in Pharmacology, Chapter 3, pages 22-34, Academic Press, N.Y. (1965)]. If an anomaly were noted, the observation was extended and smaller doses were tested. Possible types of behavior to be observed are as follows: analgesia (AAG), convulsions (CON), depression (DEP), exophthalmia (EOP), excitation (EXC), hyperalgesia (HAG), hypothermia (ATH), hypotonia (ATN), piloerection (PIE), palpebral ptosis (PTO), reduction of the pinna reflux (RPI), reduction of the rearing reflex (RRE), reduction of the flexion reflex (RRF), sedation (SED), tremors (TRE), cyanosis (CYA), diarrhea (DIA), increase of the pinna reflex (HPI), increase of the flexion reflex (HRF), dyspnea (DYS), toxic (TOX), zero ("0") means no effect. Behaviors observed are reported in Table V by numbers which represent the dose at which the behavior is observed.

mice [3] = assay: Prevention of bicuculline (BIC)-induced convulsions in mice; type: in vivo, male Swiss albino mice; conditions: Mus musculus, po; 30 mg/kg orally; bicuculline 0.6 mg/kg intravenously; four groups of five animals; read-out: Percentage of Mice Protected from Bicuculline
Experimental: as §1, §2

[4] = Acute toxicity in mice after oral administration; parameters: species or system male Swiss albino mice; conditions: mouse, in vivo, mortality over 15 days
Experimental: as §1
The acute toxicity of compounds of the invention was determined after oral administration of the test compound to mice. Compound to be tested was suspended in a 1% tragacanth gum mucilage, and was administered by means of an intragastric probe to a group of three male mice. Doses used in the test were determined by observing toxic effects on the mice, which doses varied from 3,000 mg/kg down to about 3 mg/kg. The mortality was recorded over a period of 15 days. The LD50 results reported in Table V were calculated according to published methods [Lichtfield and Wilcoxon, J. Pharmacol. Exp. Ther., 96, 99 (1949)] and expressed in mg of test compound per kilogram of mouse body weight.

mice [5] = assay: 5HTP-induced head twitch in mice; type: in vivo, male Swiss albino mice; conditions: Mus musculus, po, 2 hours before 5HTP challenge (10 mg/kg i.p.) after nialamide 50 mg/kg i.p.; read-out: ED50 (inhibition of 5HTP-induced head twitches)
Experimental: as §1
Compound #6 was evaluated for inhibition of head twitches produced in mice by administration of L-5-hydroxytryptophan (5HTP, 10 mg/kg intraperitoneously) after nialamide treatment (50 mg/kg intraperitoneal, 22 hours before the test). The head twitches were counted for 45 min. starting 15 min. after 5HTP administration. [E. Friedmann et al.; Europ. J. Pharmocol., 89, 69-76 (1983)].

mice [6] = assay: Inhibition of pentylenetetrazole (PTZ)-induced convulsions in mice; type: in vivo, male Swiss albino mice; conditions: Mus musculus, po; convulsant PTZ 55 mg/kg intravenously; compound orally; read-out: Inhibition of Convulsions by Cpd. #6 (ED50), PZT
Experimental: as §1, with “Except as otherwise specified, the animals used in the in vivo tests were male Swiss albino mice weight 22 to 33 g [CDl, Charles River, France], housed in groups of 10 on a 12-hour dark-light cycle for at least one week before use and fasted overnight prior to testing.” left out
(§4) Compounds of Formula I were evaluated as inhibitors of convulsions and death induced by different convulsant agents: 3-mercaptopropionic acid (3-MPA; 120 mg/kg subcutaneously), bicuculline (BIC, 0.6 mg/kg intravenously), pentylenetetrazole (PTZ, 55 mg/kg intravenously) and supramaximal electroconvulsive shocks (ECS evoked by a current intensity of 48 mA, 50 Hz. 0.2 sec duration, 10 msec square pulse, corneal electrodes) [W. van Dorsser, D. Barris, A. Cordi and J. Roba, Arch. […]
as §3

rat frontal cortex = assay: Chronic focal epilepsy assay (cobalt powder on rat frontal cortex, EEG spike activity); type: in vivo; conditions: ip, intraperitoneal, cobalt-induced spikes, read-out: threshold dose for inhibiting spike activities
Experimental: In a model of chronic focal epilepsy where cobalt powder is placed on rat frontal cortex, the animals develop, after several days, chronic expression of afterdischarge-like spike activity which can be recorded by EEG. Compound #6 has, when administered by intraperitoneal route, a threshold dose of 200 mg/kg for inhibiting these spike activities with the effect being observed from 30 to 90 minutes.

mice [7] = assay: Inhibition of convulsions induced by supramaximal electroconvulsive shocks (ECS) in mice; type: in vivo, male Swiss albino mice; conditions: Mus musculus, po; ECS 48 mA, 50 Hz, 0.2 sec, corneal electrodes; compound orally; read-out: Inhibition of Convulsions by Cpd. #6 (ED50), ECS
Experimental: as §1, with “Except as otherwise specified, the animals used in the in vivo tests were male Swiss albino mice weight 22 to 33 g [CDl, Charles River, France], housed in groups of 10 on a 12-hour dark-light cycle for at least one week before use and fasted overnight prior to testing.” left out
as §4, §3

| SMILES | Number of Mice Protected From Convulsions Induced by 3-MPA at 100 mg/kg, 30 min interval (mice [1]) | Behavior (dose at which the behavior is observed : behavior) (mice [2]) | responders at 30 mg/kg (mice [3]) | LD50 at 360 h [4] | Number of Mice Protected From Convulsions Induced by 3-MPA at 100 mg/kg, 2 hr interval (mice [1]) | ED50 (mice [1]; Mus musculus, po, convulsant 3-MPA 120 mg/kg subcutaneously, compound orally, read-out: Inhibition of Convulsions by Cpd. #6 (ED50), 3-MPA) | ED50 (mice [5]) | ED50 (mice [6]) | minimal effective dose (rat frontal cortex) | ED50 (mice [7]) |
| --- | --- | --- | --- | --- | --- | --- | --- | --- | --- | --- |
| CCCCCCCCNC(=O)NC(=O)CNCCCCC [Compound 1, 1-octyl-3-(2-pentylamino-1-oxoethyl)urea] | 0 mice | 1000:0 mg/kg | 35% | > 1000 mg/kg | – | – | – | – | – | – |
| CCCCCNCC(=O)NC(=O)NCCc1ccccc1 [Compound 2, 1-(2-phenylethyl)-3-(2-pentylamino-1-oxoethyl)urea] | 3 mice | 1000:SED, RPI, RRE | 25% | > 1000 mg/kg | – | – | – | – | – | – |
| CCCCCCCCNC(=O)NC(=O)CNCCc1ccccc1 [Compound 3, 1-octyl-3-[2-(2-phenylethyl)amino-1-oxoethyl]urea] | 6 mice | 3000:SED, ATN | 55% | > 3000 mg/kg | 3 mice | – | – | – | – | – |
| CCCCCCCCNCC(=O)NC(=O)NCCCCCCCC [Compound 4, 1-octyl-3-(2-octylamino-1-oxoethyl)urea] | 4 mice | 3000:0 mg/kg | 35% | > 3000 mg/kg | 3 mice | – | – | – | – | – |
| O=C(CNCCc1ccccc1)NC(=O)NCCc1ccccc1 [Compound 5, 1-(2-phenylethyl)-3-[2-(2-phenylethyl)amino-1-oxoethyl]urea] | 6 mice | 3000:TOX, DEP | 45% | 1750 mg/kg | 1 mice | – | – | – | – | – |
| CCCCCCCCNCC(=O)NC(=O)NCCc1ccccc1 [Compound 6, 1-(2-phenylethyl)-3-(2-octylamino-1-oxoethyl)urea] | 9 mice | 1000:SED, ATN | 35% | > 3000 mg/kg | 9 mice | 16 mg/kg | 200 mg/kg | 56 mg/kg | 200 mg/kg | 60 mg/kg |
| CCCCCNC(=O)NC(=O)CNCCc1ccccc1 [Compound 7, 1-pentyl-3-[2-(2-phenylethyl)amino-1-oxoethyl]urea] | 1 mice | 1000:SED | 25% | > 3000 mg/kg | – | – | – | – | – | – |
| CCCCCNCC(=O)NC(=O)NCCCCC [Compound 8, 1-pentyl-3-(2-pentylamino-1-oxoethyl)urea] | 0 mice | – | 40% | > 3000 mg/kg | – | – | – | – | – | – |
| CCCCCCCCNCC(=O)NC(=O)NCCCCC [Compound 9, 1-pentyl-3-(2-octylamino-1-oxoethyl)urea] | 7 mice | 1000:0 mg/kg | 35% | > 1000 mg/kg | 4 mice | – | – | – | – | – |
| CNC(=O)NC(=O)CNC(c1ccccc1)c1ccccc1 [Compound 10, 1-methyl-3-(2-diphenylmethylamino-1-oxoethyl)urea] | 1 mice | – | – | – | – | – | – | – | – | – |
| O=C(CNC(c1ccccc1)c1ccccc1)NC(=O)NCCc1ccccc1 [Compound 11, 1-(2-phenylethyl)-3-(2-diphenylmethylamino-1-oxoethyl)urea] | 0 mice | – | – | – | – | – | – | – | – | – |
